Laboratory results published in PMC3025750 (Journal of medicinal chemistry, 2010).
“Also recorded” adds a separate entry of the source.

Experiments:
[1] = tested on: TCR-induced activation of the proximal IL-2 promoter (NFAT/AP-1) in Jurkat TAg T cells; assay: NFAT/AP-1 dual luciferase reporter assay; assay type: cell-based; settings: for NFAT/AP-1 activation in TCR-stimulated sample compared to DMSO control / NFAT/AP-1 signaling in unstimulated sample: 5 μM compound; for NFAT/AP-1 activation in TCR-stimulated sample compared to DMSO control: 45 min, then OKT3 6 hours; for NFAT/AP-1 activation in TCR-stimulated sample compared to DMSO control / dose-dependence of TCR-induced NFAT/AP-1 activation / NFAT/AP-1 signaling in unstimulated sample: Jurkat TAg T cells; for dose-dependence of TCR-induced NFAT/AP-1 activation: dose-response 0.1 to 30 μM; for NFAT/AP-1 signaling in unstimulated sample: no TCR stimulation
[2] = tested on: Lck-pY394 and pζ-chain phosphorylation in Jurkat TAg T cells; assay: Immunoblotting of Lyp's substrates Lck-pY394 and pζ-chain after TCR stimulation; assay type: cell-based; settings: 45 min at 37°C, then TCR stimulation, immunoblot
recombinant Lyp = recombinant Lyp (Homo sapiens, UniProt Q9Y2R2); settings: ratio of IC50 values
Chain of recombinant Lyp (Q9Y2R2 2-309): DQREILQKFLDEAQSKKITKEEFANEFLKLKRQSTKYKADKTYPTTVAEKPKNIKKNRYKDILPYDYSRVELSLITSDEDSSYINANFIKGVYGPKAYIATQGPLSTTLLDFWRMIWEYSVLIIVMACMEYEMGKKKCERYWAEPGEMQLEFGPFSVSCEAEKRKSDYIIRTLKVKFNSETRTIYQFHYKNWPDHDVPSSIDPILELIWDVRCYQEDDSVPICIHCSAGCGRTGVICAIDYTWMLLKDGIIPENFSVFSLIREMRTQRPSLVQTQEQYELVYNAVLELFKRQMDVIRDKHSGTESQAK

Compound	NFAT/AP-1 activation in TCR-stimulated sample compared to DMSO control [1]	concentration at which pTyr levels of Lck-pY394 and pζ-chain were augmented [2] [μM]	compound concentration at which NFAT/AP-1 activation was augmented [1]	dose-dependence of TCR-induced NFAT/AP-1 activation [1]	NFAT/AP-1 signaling in unstimulated sample [1]	improvement of Lyp inhibitory activity over the original compound 478 (recombinant Lyp) [fold]
Cc1ccc(-c2oc3cc(O)c(C(=O)O)cc3c2-c2cn(CCC(=O)Nc3cccc4ccccc34)nn2)cc1 [Compound 530]	considerable higher NFAT/AP-1 activation	–	–	–	–	–
COc1ccc(-c2oc3cc(O)c(C(=O)O)cc3c2-c2cn(CCCC(=O)Nc3cccc4ccccc34)nn2)cc1 [Compound 584, 6-hydroxy-2-(4-methoxyphenyl)-3-(1-(4-(naphthalen-1-ylamino)-4-oxobutyl)-1H-1,2,3-triazol-4-yl)benzofuran-5-carboxylic acid]	considerable higher NFAT/AP-1 activation	3	submicromolar	dose-dependent effect	–	–
O=C(CCCCn1cc(-c2c(-c3ccccc3)oc3cc(O)c(C(=O)O)cc23)nn1)Nc1cccc2ccccc12 [Compound 496]	considerable higher NFAT/AP-1 activation	–	–	–	–	–
COc1ccc2nc(NC(=O)CCCn3cc(-c4c(-c5cccc(C)c5)oc5cc(O)c(C(=O)O)cc45)nn3)sc2c1 [Compound 630, 6-hydroxy-3-(1-(4-(6-methoxybenzo[d]thiazol-2-ylamino)-4-oxobutyl)-1H-1,2,3-triazol-4-yl)-2-m-tolylbenzofuran-5-carboxylic acid]	considerable higher NFAT/AP-1 activation	30	≥ 3 µM	dose-dependent effect	–	–
Cc1ccc(-c2oc3cc(O)c(C(=O)O)cc3c2-c2cn(CCCC(=O)Nc3cccc4ccccc34)nn2)cc1 [Compound 522, 6-hydroxy-3-(1-(4-(naphthalen-1-ylamino)-4-oxobutyl)-1H-1,2,3-triazol-4-yl)-2-p-tolylbenzofuran-5-carboxylic acid]	considerable higher NFAT/AP-1 activation	10	submicromolar	dose-dependent effect	–	–
O=C(CCCn1cc(-c2c(-c3ccccc3)oc3cc(O)c(C(=O)O)cc23)nn1)Nc1ccc(Br)c2ccccc12 [Compound 482]	–	–	–	–	substantially augmented signaling; also recorded: enhanced T cell signaling in a non TCR-mediated manner	–
COC(=O)c1cc2c(-c3cn(CCCC(=O)Nc4ccc(Cl)c5ccccc45)nn3)c(-c3ccccc3)oc2cc1O [Compound 486, Methyl 3-(1-(4-(4-chloronaphthalen-1-ylamino)-4-oxobutyl)-1H-1,2,3-triazol-4-yl)-6-hydroxy-2-phenylbenzofuran-5-carboxylate]	considerable higher NFAT/AP-1 activation	5	submicromolar	dose-dependent effect	–	–
Cc1ccc(-c2oc3cc(O)c(C(=O)O)cc3c2-c2cn(CCCC(=O)Nc3cccc4cccnc34)nn2)cc1 [Compound 523]	considerable higher NFAT/AP-1 activation	–	–	–	–	–
Cc1ccc(-c2oc3cc(O)c(C(=O)O)cc3c2-c2cn(CCCC(=O)Nc3ccc(Cl)c4ccccc34)nn2)cc1 [Compound 525, 3-(1-(4-(4-chloronaphthalen-1-ylamino)-4-oxobutyl)-1H-1,2,3-triazol-4-yl)-6-hydroxy-2-p-tolylbenzofuran-5-carboxylic acid]	considerable higher NFAT/AP-1 activation	30	submicromolar	dose-dependent effect	–	–
Cc1ccc(-c2oc3cc(O)c(C(=O)O)cc3c2-c2cn(CCCC(=O)Nc3ccc(Br)c4ccccc34)nn2)cc1 [Compound 526]	modest	–	–	–	substantially augmented signaling; also recorded: enhanced T cell signaling in a non TCR-mediated manner	17
O=C(CCn1cc(-c2c(-c3ccccc3)oc3cc(O)c(C(=O)O)cc23)nn1)Nc1cccc2ccccc12 [Compound 495]	considerable higher NFAT/AP-1 activation	–	–	–	–	–
O=C(CCCn1cc(-c2c(-c3ccccc3)oc3cc(O)c(C(=O)O)cc23)nn1)Nc1cccc2ccccc12 [Compound 478, reference compound]	did not show an effect	–	–	–	–	–
